Square brackets hold non-standard residues; d marks the D form. Peptide text beside a SMILES is read from it. Oic = O=C(O)[C@@H]1C[C@@H]2CCCC[C@@H]2N1; d2Nal = N[C@H](Cc1ccc2ccccc2c1)C(=O)O; αMeF = C[C@](N)(Cc1ccccc1)C(=O)O; Orn = NCCC[C@H](N)C(=O)O
System: STZ diabetic mice
Assay: Tail flick test, type-1 diabetic hyperalgesia
Type: in vivo
Settings: STZ diabetic mice, i.p., at time of maximal inhibition (10 min)
Description: Male CD-1 mice weighting between 25–30 g (Charles River Breeding Laboratory, St-Constant, QC, Canada) were used. The mice were housed four by cage with free access to food and water. They were maintained under conditions of standard lighting, (alternating 12-h light/dark cycle), temperature (22±0.5° C.) and humidity (60±10%) with food and water available at libitum. Animals were used only once in a given experiment. Experiments were conducted between 10:00 and 18:00 h.
Streptozotocin (Pharmacia & Upjohn Incorporation, Mississauga, ON, Canada) was dissolved in saline at a pH of 4.5 and administered to mice i.p. The BKB1 agonist desArg^9BK and compound c were dissolved in saline and administered to mice i.p.
Insulin-dependent diabetes mellitus (IDDM) was induced in mice using STZ. Male CD-1 mice were given a single high i.p. dose of STZ (200 mg/kg) (McEvoy et al., 1984, J Clin Invest 74, 715–722). […] Blood glucose levels were determined with an automatic analyzer (Glucometer Elite XL, Bayer Incorporation, Toronto, Ontario, Canada) using glucose oxidase/potassium ferricyanide reagent strips. […]
The tail flick test of D'Amour and Smith (D'Amour and Smith, 1941, J Pharmacol Exp Ther 72, 74–79) modified for mice was used. […] The radiant light is focussed on a blackened spot in the mid region of the animal's tail (2–3 cm from the tip of the tail) and the latency between the application of the stimulation light and the flicking of the animal's tail is recorded. When the animal flicks its tail, its exposes a photocell in the apparatus immediately below the tail and the instrument is automatically stopped and the time is recorded. […]
The effect of the selected drugs on nociception was determined by converting the hot plate, the plantar stimulation, the tail immersion or the tail flick responses from latencies into MPE (Maximum Percent Effect) according to the following equation (Bhargava and Zhao, 1996, Neuropeptides, 30, 219–223): […]

Q: CC[C@H](C)[C@H](NC(=O)[C@@H](Cc1ccc2ccccc2c1)NC(=O)[C@H](CO)NC(=O)[C@](C)(Cc1ccccc1)NC(=O)CNC(=O)[C@@H]1CCCN1C(=O)[C@@H]1C[C@@H]2CCCC[C@@H]2N1C(=O)[C@H](CCCNC(=N)N)NC(=O)[C@H](CCCN)NC(C)=O)C(=O)O [compound c, Ac-Orn[Oic^2,(α-Me)Phe^5,D-βNal^7,Ile^8]desArg^9BK] (Ac-[Orn]R[Oic]PG[αMeF]S[d2Nal]I-OH) was tested. Which ID50 did it give?
A: Its ID50 is 0.072 ± 0.002 mg/kg.

Source: patent US7211566B2 (Universite De Sherbrooke, priority 2003, dated 2007)
